Experimental data taken from US20260184707A1, “PHARMACEUTICAL COMPOUNDS FOR THE TREATMENT OF COMPLEMENT MEDIATED DISORDERS” (ALEXION PHARMACEUTICALS, INC., priority 2022, published 2026).

Target: T1, Human complement C1s enzyme (Homo sapiens, UniProt P09871)
T1 construct: purified from human serum, Complement Technology, Inc; purchased Complement Technology, Inc; host or cells: human serum (plasma-derived native protein)
T1 sequence (P09871 438-688 limits assumed): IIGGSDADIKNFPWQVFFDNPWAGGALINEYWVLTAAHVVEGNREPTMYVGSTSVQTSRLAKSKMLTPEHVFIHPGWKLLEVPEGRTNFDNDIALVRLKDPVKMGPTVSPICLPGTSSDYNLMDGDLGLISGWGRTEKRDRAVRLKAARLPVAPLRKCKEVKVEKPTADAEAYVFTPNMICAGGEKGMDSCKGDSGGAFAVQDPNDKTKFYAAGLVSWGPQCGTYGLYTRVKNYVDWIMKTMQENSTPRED
T1 sequence (P09871 16-437 partner limits assumed): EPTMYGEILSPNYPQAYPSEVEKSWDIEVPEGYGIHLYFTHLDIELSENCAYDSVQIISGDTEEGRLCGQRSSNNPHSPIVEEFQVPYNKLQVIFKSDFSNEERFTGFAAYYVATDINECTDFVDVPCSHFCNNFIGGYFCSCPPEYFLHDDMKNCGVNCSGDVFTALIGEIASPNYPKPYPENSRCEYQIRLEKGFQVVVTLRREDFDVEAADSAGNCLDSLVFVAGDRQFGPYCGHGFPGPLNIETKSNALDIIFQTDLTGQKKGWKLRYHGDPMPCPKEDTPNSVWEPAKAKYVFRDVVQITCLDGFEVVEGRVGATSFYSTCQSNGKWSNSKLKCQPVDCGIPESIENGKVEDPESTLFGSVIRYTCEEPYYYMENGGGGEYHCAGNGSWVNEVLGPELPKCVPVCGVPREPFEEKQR
Experiment: Human C1s enzyme assay
Type: biochemical
Settings: human complement C1s enzyme 1.16 nM, substrate Z-L-Lys-SBzl, A405; read-out: IC50 (Stars)
Procedure, shortened: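 Thioesterase activity followed colorimetrically (DTNB, A405, 30-s reads) using 100 μM Z-L-Lys-SBzl substrate. Enzyme, human serum-derived C1s at 1.16 nM final, was incubated with test compound for 5 min, room temperature, pH 7.5 Tris buffer with 1 M NaCl. Rate-versus-concentration data fitted by nonlinear regression for IC50.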

| SMILES | IC50 [µM] |
| --- | --- |
| O=C(Cn1c(N2CCC(F)(F)C2)ncc(NCc2ccc3oc4ccccc4c3c2)c1=O)NCc1c[nH]c2ccncc12 [Compound 271, N-((1H-pyrrolo[3,2-c]pyridin-3-yl)methyl)-2-(5-((dibenzo [b,d]furan-2-ylmethyl)amino)-2-(3,3-difluoropyrrolidin-1-yl)-6-oxopyrimidin-1(6H)-yl)acet-amide] | < 0.1 |
| C[C@H](Nc1cnc(C2=CCCCC2)n(CC(=O)NCc2cc3cnccc3[nH]2)c1=O)c1ccc2oc3ccccc3c2c1 [Compound 272, (S)-N-((1H-pyrrolo[3,2-c]pyr-idin-2-yl)methyl)-2-(2-(cyclo-hex-1-en-1-yl)-5-((1-(dibenzo [b,d]furan-2-yl)ethyl)amino)-6-oxopyrimidin-1(6H)-yl)acet-amide] | < 0.1 |
| C[C@H](Nc1cnc(-c2ccco2)n(CC(=O)NCc2cc3cnccc3[nH]2)c1=O)c1ccc2oc3ccccc3c2c1 [Compound 273, (S)-N-((1H-pyrrolo[3,2-c]pyr-idin-2-yl)methyl)-2-(5-((1-(dibenzo[b,d]furan-2-yl)ethyl)-amino)-2-(furan-2-yl)-6-oxo-pyrimidin-1(6H)-yl)acetamide] | < 0.1 |
| C[C@H](Nc1cnc(-c2cccnc2)n(CC(=O)NCc2cc3cnccc3[nH]2)c1=O)c1ccc2oc3ccccc3c2c1 [Compound 274, (S)-N-((1H-pyrrolo[3,2-c]pyr-idin-2-yl)methyl)-2-(5-((1-(dibenzo[b,d]furan-2-yl)ethyl)-amino)-6-oxo-2-(pyridin-3-yl)-pyrimidin-1(6H)-yl)acetamide] | < 0.1 |
| C[C@@H](Nc1cnc(-c2ccccc2)n(CC(=O)NCc2cc3cnccc3[nH]2)c1=O)c1ccc(-c2ccccc2)cc1 [Compound 275, (R)-N-((1H-pyrrolo[3,2-c]pyr-idin-2-yl)methyl)-2-(5-((1-([1,1′-biphenyl]-4-yl)ethyl)-amino)-6-oxo-2-phenylpyrimi-din-1(6H)-yl)acetamide] | < 0.1 |
| C[C@H](Nc1cnc(-c2ccccc2)n(CC(=O)NCc2cc3cnccc3[nH]2)c1=O)c1ccc(-c2ccccc2)cc1 [Compound 276, (S)-N-((1H-pyrrolo[3,2-c]pyr-idin-2-yl)methyl)-2-(5-((1-([1,1′-biphenyl]-4-yl)ethyl)-amino)-6-oxo-2-phenylpyrimi-din-1(6H)-yl)acetamide] | < 0.1 |
| C[C@H](Nc1cnc(C2CCCC2)n(CC(=O)NCc2cc3cnccc3[nH]2)c1=O)c1ccc2oc3ccccc3c2c1 [Compound 277, (S)-N-((1H-pyrrolo[3,2-c]pyr-idin-2-yl)methyl)-2-(2-cyclo-pentyl-5-((1-(dibenzo[b,d]furan-2-yl)ethyl)amino)-6-oxo-pyrimidin-1(6H)-yl)acetamide] | < 0.1 |
| O=C(Cn1c(-c2ccccc2)ncc(NC(=O)c2ccc(-c3ccccc3)s2)c1=O)NCc1ccc(Cl)s1 [Compound 278, N-(1-(2-(((5-chlorothiophen-2-yl)methyl)amino)-2-oxoethyl)-6-oxo-2-phenyl-1,6-dihydro-pyrimidin-5-yl)-5-phenylthio-phene-2-carboxamide] | > 1 |
| O=C(Cn1c(-c2ccc(N3CCOCC3)nc2)ncc(NCc2ccc3oc4ccccc4c3c2)c1=O)NCc1cc2cnccc2[nH]1 [Compound 279, N-((1H-pyrrolo[3,2-c]pyridin-2-yl)methyl)-2-(5-((dibenzo [b,d]furan-2-ylmethyl)amino)-2-(6-morpholinopyridin-3-yl)-6-oxopyrimidin-1(6H)-yl)-acetamide] | < 0.1 |
| O=C(Cn1c(-c2ccc(OC3CCOCC3)cc2)ncc(NCc2ccc3oc4ccccc4c3c2)c1=O)NCc1cc2cnccc2[nH]1 [Compound 280, N-((1H-pyrrolo[3,2-c]pyridin-2-yl)methyl)-2-(5-((dibenzo [b,d]furan-2-ylmethyl)amino)-6-oxo-2-(4-((tetrahydro-2H-pyran-4-yl)oxy)phenyl)pyrimi-din-1(6H)-yl)acetamide] | < 0.1 |
| O=C(Cn1c(N2CC(F)(F)C2)ncc(NCc2ccc3oc4ccccc4c3c2)c1=O)NCc1cc2cnccc2[nH]1 [Compound 281, N-((1H-pyrrolo[3,2-c]pyridin-2-yl)methyl)-2-(5-((dibenzo [b,d]furan-2-ylmethyl)amino)-2-(3,3-difluoroazetidin-1-yl)-6-oxopyrimidin-1(6H)-yl)acet-amide] | < 0.1 |
| C[C@H](Nc1ncc(-c2ccccc2)n(CC(=O)NCc2cc3cnccc3[nH]2)c1=O)c1ccc2oc3ccccc3c2c1 [Compound 282, (S)—N-((1H-pyrrolo[3,2-c]pyridine-2-yl)methyl)-2-(3-((1-(dibenzo[b,d]furan-2-yl)ethyl)amino)-2-oxo-6-phenylpyrazin-1(2H)-yl)acetamide] | < 0.1 |
| C[C@H](Nc1cnc(-c2cnn(C)c2)n(CC(=O)NCc2cc3cnccc3[nH]2)c1=O)c1ccc2oc3ccccc3c2c1 [Compound 283, (S)-N-((1H-pyrrolo[3,2-c]pyr-idin-2-yl)methyl)-2-(5-((1-(dibenzo[b,d]furan-2-yl)ethyl)-amino)-2-(1-methyl-1H-pyr-azol-4-yl)-6-oxopyrimidin-1(6H)-yl)acetamide] | < 0.1 |
| C[C@H](Nc1cnc(N2CCCCC2)n(CC(=O)NCc2cc3cnccc3[nH]2)c1=O)c1ccc2oc3ccccc3c2c1 [Compound 284, (S)-N-((1H-pyrrolo[3,2-c]pyr-idin-2-yl)methyl)-2-(5-((1-(dibenzo[b,d]furan-2-yl)ethyl)-amino)-6-oxo-2-(piperidin-1-yl)pyrimidin-1(6H)-yl)acet-amide] | < 0.1 |
| C[C@H](Nc1cnc(-c2ccccn2)n(CC(=O)NCc2cc3cnccc3[nH]2)c1=O)c1ccc2oc3ccccc3c2c1 [Compound 285, (S)—N-((1H-pyrrolo[3,2-c]pyridine-2-yl)methyl)-2-(5-((1-(dibenzo[b,d]furan-2-yl)ethyl)amino)-6-oxo-2-(pyridine-2-yl)pyrimidin-1(6H)-yl)acetamide] | < 0.1 |
| C[C@H](Nc1cnc(-c2cccs2)n(CC(=O)NCc2cc3cnccc3[nH]2)c1=O)c1ccc2oc3ccccc3c2c1 [Compound 286, (S)-N-((1H-pyrrolo[3,2-c]pyr-idin-2-yl)methyl)-2-(5-((1-(dibenzo[b,d]furan-2-yl)ethyl)-amino)-6-oxo-2-(thiophen-2-yl)pyrimidin-1(6H)-yl)acet-amide] | < 0.1 |
| Cn1cc(-c2ncc(NCc3ccc4oc5ccccc5c4c3)c(=O)n2CC(=O)NCc2cc3cnccc3[nH]2)cn1 [Compound 287, N-((1H-pyrrolo[3,2-c]pyridin-2-yl)methyl)-2-(5-((dibenzo [b,d]furan-2-ylmethyl)amino)-2-(1-methyl-1H-pyrazol-4-yl)-6-oxopyrimidin-1(6H)-yl)-acetamide] | < 0.1 |
| C[C@H](Nc1cnc(-c2ccc(O[C@@H]3CO[C@H]4[C@@H]3OC[C@H]4O)cc2)n(CC(=O)NCc2cc3cnccc3[nH]2)c1=O)c1ccc2oc3ccccc3c2c1 [Compound 288, N-((1H-pyrrolo[3,2-c]pyridin-2-yl)methyl)-2-(5-(((S)-1-(dibenzo[b,d]furan-2-yl)ethyl)-amino)-2-(4-(((3R,3aR,6R, 6aR)-6-hydroxyhexahydrofuro [3,2-b]furan-3-yl)oxy)phenyl)-6-oxopyrimidin-1(6H)-yl)acet-amide] | < 0.1 |
| O=C(Cn1c(-c2ccncc2)ncc(NCc2ccc3oc4ccccc4c3c2)c1=O)NCc1cc2cnccc2[nH]1 [Compound 289, N-((1H-pyrrolo[3,2-c]pyridin-2-yl)methyl)-2-(5-((dibenzo [b,d]furan-2-ylmethyl)amino)-6-oxo-2-(pyridin-4-yl)pyrimi-din-1(6H)-yl)acetamide] | < 0.1 |
| C[C@@H](Nc1cnc(-c2ccc(=O)n(C)c2)n(CC(=O)NCc2cc3cnccc3[nH]2)c1=O)c1ccc2oc3ccccc3c2c1 [Compound 290, (R)-N-((1H-pyrrolo[3,2-c]pyr-idin-2-yl)methyl)-2-(5-((1-(dibenzo[b,d]furan-2-yl)ethyl)-amino)-2-(1-methyl-6-oxo-1,6-dihydropyridin-3-yl)-6-oxopyr-imidin-1(6H)-yl)acetamide] | 0.1 to 1 |
| C[C@@H](Nc1cnc(C2=CCOCC2)n(CC(=O)NCc2cc3cnccc3[nH]2)c1=O)c1ccc2oc3ccccc3c2c1 [Compound 291, (R)-N-((1H-pyrrolo[3,2-c]pyr-idin-2-yl)methyl)-2-(5-((1-(dibenzo[b,d]furan-2-yl)ethyl)-amino)-2-(3,6-dihydro-2H-pyran-4-yl)-6-oxopyrimidin-1(6H)-yl)acetamide] | < 0.1 |
| Cc1cccc(-c2ncc(N[C@H](C)c3ccc4oc5ccccc5c4c3)c(=O)n2CC(=O)NCc2cc3cnccc3[nH]2)c1 [Compound 292, (R)-N-((1H-pyrrolo[3,2-c]pyr-idin-2-yl)methyl)-2-(5-((1-(dibenzo[b,d]furan-2-yl)ethyl)-amino)-6-oxo-2-(m-tolyl)pyr-imidin-1(6H)-yl)acetamide] | < 0.1 |
